Results: the supplement of paper PMC11061612

Assays:
Assay in all cases: combination Emax (second highest fraction inhibited in the dose matrix, 72 h); higher = more inhibition; extreme values may be limits of the assay
[1] = tested on: ALL-PO (B-Lymphoblastic Leukemia)
Procedure, shortened: (§1)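 Bliss excess equals the observed combination effect minus the expected value EA + EB − EA·EB, where EA and EB are the effects of each agent alone. Combination Emax is the second-highest inhibition within the matrix. Inhibition was scaled from CellTiter-Glo 2.0 luminescence, with 0 set by vehicle wells and 1 by blank wells, after 72 hours of two-drug dosing of cells plated in 1536-well plates.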

[2] = tested on: BFTC-909 (Kidney Carcinoma)
Procedure, shortened: as §1

EW-11 (Ewing's Sarcoma) = tested on: EW-11 (Ewing's Sarcoma)
Procedure, shortened: as §1

GAMG (Glioblastoma) = tested on: GAMG (Glioblastoma)
Procedure, shortened: as §1

[3] = tested on: HeLa (Cervical Carcinoma)
Procedure, shortened: as §1

[4] = tested on: Hs-746T (Gastric Carcinoma)
Procedure, shortened: as §1

[5] = tested on: KYAE-1 (Esophageal Adenocarcinoma)
Procedure, shortened: as §1

[6] = tested on: L-428 (Hodgkin's Lymphoma)
Procedure, shortened: as §1

[7] = tested on: LCLC-97TM1 (Non-Small Cell Lung Carcinoma)
Procedure, shortened: as §1

[8] = tested on: LNZTA3WT4 (Low Grade Glioma)
Procedure, shortened: as §1

LOXIMVI (Melanoma) = tested on: LOXIMVI (Melanoma)
Procedure, shortened: as §1

[9] = tested on: LS-123 (Colorectal Carcinoma)
Procedure, shortened: as §1

NCI-H2722 (Mesothelioma) = tested on: NCI-H2722 (Mesothelioma)
Procedure, shortened: as §1

[10] = tested on: NCI-H524 (Small Cell Lung Carcinoma)
Procedure, shortened: as §1

[11] = tested on: OV-56 (Ovarian Carcinoma)
Procedure, shortened: as §1

[12] = tested on: SAS (Oral Cavity Carcinoma)
Procedure, shortened: as §1

[13] = tested on: SNU-16 (Gastric Carcinoma)
Procedure, shortened: as §1

[14] = tested on: SNU-449 (Hepatocellular Carcinoma)
Procedure, shortened: as §1

[15] = tested on: SW1710 (Bladder Carcinoma)
Procedure, shortened: as §1

[16] = tested on: WSU-NHL (B-Cell Non-Hodgkin's Lymphoma)
Procedure, shortened: as §1

For C=CCn1c(=O)c2cnc(Nc3ccc(N4CCN(C)CC4)cc3)nc2n1-c1cccc(C(C)(C)O)n1 [AZD1775] + O=C(c1cc(Cc2n[nH]c(=O)c3ccccc23)ccc1F)N1CCN(C(=O)C2CC2)CC1 [Olaparib] (first compound max 1 µM, partner max 10 µM), the “combination Emax” value [1] was 0.951, the “combination Emax” value [2] was 0.595 and the “combination Emax” value (EW-11 (Ewing's Sarcoma)) was 0.599. For the same molecule, the “combination Emax” value (GAMG (Glioblastoma)) was 0.486, the “combination Emax” value [3] was 0.694 and the “combination Emax” value [4] was 0.591. For the same molecule, the “combination Emax” value [5] was 0.468, the “combination Emax” value [6] was 0.842 and the “combination Emax” value [7] was 0.774. The “combination Emax” value [8] was 0.806, the “combination Emax” value (LOXIMVI (Melanoma)) was 0.638 and the “combination Emax” value [9] was 0.644. The “combination Emax” value (NCI-H2722 (Mesothelioma)) was 0.346, the “combination Emax” value [10] was 0.789 and the “combination Emax” value [11] was 0.261. The “combination Emax” value [12] was 0.577, the “combination Emax” value [13] was 0.931 and the “combination Emax” value [14] was 0.22. For the same molecule, the “combination Emax” value [15] was 0.383 and the “combination Emax” value [16] was 1.

CCN(CCO)CCCOc1ccc2c(Nc3cc(CC(=O)Nc4cccc(F)c4)[nH]n3)ncnc2c1 [AZD2811] + C=CCn1c(=O)c2cnc(Nc3ccc(N4CCN(C)CC4)cc3)nc2n1-c1cccc(C(C)(C)O)n1 [AZD1775] (first compound max 1 µM, partner max 1 µM) was tested, and the “combination Emax” value [1] was 0.981, the “combination Emax” value [2] was 0.683 and the “combination Emax” value (EW-11 (Ewing's Sarcoma)) was 0.469. The “combination Emax” value (GAMG (Glioblastoma)) was 0.417, the “combination Emax” value [3] was 0.449 and the “combination Emax” value [4] was 0.436. The “combination Emax” value [5] was 0.395, the “combination Emax” value [6] was 0.824 and the “combination Emax” value [7] was 0.842. For the same molecule, the “combination Emax” value [8] was 0.792, the “combination Emax” value (LOXIMVI (Melanoma)) was 0.959 and the “combination Emax” value [9] was 0.68. For the same molecule, the “combination Emax” value (NCI-H2722 (Mesothelioma)) was 0.278, the “combination Emax” value [10] was 0.976 and the “combination Emax” value [11] was 0.139. For the same molecule, the “combination Emax” value [12] was 0.43, the “combination Emax” value [13] was 0.916 and the “combination Emax” value [14] was 0.249. The “combination Emax” value [15] was 0.317 and the “combination Emax” value [16] was 1.

In the case of CN(CCO)CC[C@H](CSc1ccccc1)Nc1ccc(S(=O)(=O)NC(=O)c2ccc(N3CCC([C@@H](O)c4ccccc4-c4ccc(Cl)cc4)CC3)cc2)cc1S(=O)(=O)C(F)(F)F [AZD4320] + C1CN(CCC1(C(=O)N[C@@H](CCO)C2=CC=C(C=C2)Cl)N)C3=NC=NC4=C3C=CN4 [Capivasertib] (first compound max 1 µM, 7x7, partner max 3 µM), the “combination Emax” value [1] is reported as 0.97, the “combination Emax” value [2] is reported as 0.346 and the “combination Emax” value (EW-11 (Ewing's Sarcoma)) is reported as 0.837. The “combination Emax” value (GAMG (Glioblastoma)) was 0.407, the “combination Emax” value [3] was 0.0628 and the “combination Emax” value [4] was 0.46. The “combination Emax” value [5] was 0.65, the “combination Emax” value [6] was 0.785 and the “combination Emax” value [7] was 0.335. The “combination Emax” value [8] was 0.218, the “combination Emax” value (LOXIMVI (Melanoma)) was 0.202 and the “combination Emax” value (NCI-H2722 (Mesothelioma)) was 0.22. The “combination Emax” value [10] was 0.765, the “combination Emax” value [11] was 0.0773 and the “combination Emax” value [12] was 0.132. For the same molecule, the “combination Emax” value [13] was 0.27, the “combination Emax” value [14] was 0.0999 and the “combination Emax” value [15] was 0.302. For the same molecule, the “combination Emax” value [16] was 1.

For CN(CCO)CC[C@H](CSc1ccccc1)Nc1ccc(S(=O)(=O)NC(=O)c2ccc(N3CCC([C@@H](O)c4ccccc4-c4ccc(Cl)cc4)CC3)cc2)cc1S(=O)(=O)C(F)(F)F [AZD4320] + C=CCn1c(=O)c2cnc(Nc3ccc(N4CCN(C)CC4)cc3)nc2n1-c1cccc(C(C)(C)O)n1 [AZD1775] (first compound max 1 µM, partner max 1 µM), the “combination Emax” value [1] was 1, the “combination Emax” value [2] was 0.905 and the “combination Emax” value (EW-11 (Ewing's Sarcoma)) was 0.949. The “combination Emax” value (GAMG (Glioblastoma)) was 0.643, the “combination Emax” value [3] was 0.722 and the “combination Emax” value [4] was 0.738. The “combination Emax” value [5] was 0.843, the “combination Emax” value [6] was 0.983 and the “combination Emax” value [7] was 0.933. For the same molecule, the “combination Emax” value [8] was 0.889, the “combination Emax” value (LOXIMVI (Melanoma)) was 0.691 and the “combination Emax” value (NCI-H2722 (Mesothelioma)) was 0.55. For the same molecule, the “combination Emax” value [10] was 0.952, the “combination Emax” value [11] was 0.165 and the “combination Emax” value [12] was 0.647. For the same molecule, the “combination Emax” value [13] was 0.917, the “combination Emax” value [14] was 0.138 and the “combination Emax” value [15] was 0.418. The “combination Emax” value [16] was 0.995.

CN(CCO)CC[C@H](CSc1ccccc1)Nc1ccc(S(=O)(=O)NC(=O)c2ccc(N3CCC([C@@H](O)c4ccccc4-c4ccc(Cl)cc4)CC3)cc2)cc1S(=O)(=O)C(F)(F)F [AZD4320] + CN(C)CCCOc1ccc(-c2ccc3ncc4c(c3c2)n(C2CCOCC2)c(=O)n4C)cn1 [AZD0156] (first compound max 1 µM, 7x7, partner max 1 µM) was tested, and the “combination Emax” value [1] was 0.97, the “combination Emax” value [2] was 0.239 and the “combination Emax” value (EW-11 (Ewing's Sarcoma)) was 0.854. For the same molecule, the “combination Emax” value (GAMG (Glioblastoma)) was 0.197, the “combination Emax” value [3] was 0.0679 and the “combination Emax” value [4] was 0.38. The “combination Emax” value [5] was 0.338, the “combination Emax” value [6] was 0.828 and the “combination Emax” value [7] was 0.107. The “combination Emax” value [8] was 0.0987, the “combination Emax” value (LOXIMVI (Melanoma)) was 0.366 and the “combination Emax” value (NCI-H2722 (Mesothelioma)) was 0.285. For the same molecule, the “combination Emax” value [10] was 0.814, the “combination Emax” value [11] was 0.153 and the “combination Emax” value [12] was 0.0348. For the same molecule, the “combination Emax” value [13] was 0.322, the “combination Emax” value [14] was 0.15 and the “combination Emax” value [15] was 0.117. The “combination Emax” value [16] was 0.866.

For CN(CCO)CC[C@H](CSc1ccccc1)Nc1ccc(S(=O)(=O)NC(=O)c2ccc(N3CCC([C@@H](O)c4ccccc4-c4ccc(Cl)cc4)CC3)cc2)cc1S(=O)(=O)C(F)(F)F [AZD4320] + Cn1cnc2c(F)c(Nc3ccc(Br)cc3Cl)c(C(=O)NOCCO)cc21 [Selumetinib] (first compound max 1 µM, 7x7, partner max 3 µM), the “combination Emax” value [1] was 1, the “combination Emax” value [2] was 0.473 and the “combination Emax” value (EW-11 (Ewing's Sarcoma)) was 0.934. The “combination Emax” value (GAMG (Glioblastoma)) was 0.296, the “combination Emax” value [3] was 0.397 and the “combination Emax” value [4] was 0.77. For the same molecule, the “combination Emax” value [5] was 0.377, the “combination Emax” value [6] was 0.737 and the “combination Emax” value [7] was 0.489. The “combination Emax” value [8] was 0.329, the “combination Emax” value (LOXIMVI (Melanoma)) was 0.689 and the “combination Emax” value (NCI-H2722 (Mesothelioma)) was 0.508. For the same molecule, the “combination Emax” value [10] was 0.84, the “combination Emax” value [11] was 0.304 and the “combination Emax” value [12] was 0.83. For the same molecule, the “combination Emax” value [13] was 0.649, the “combination Emax” value [14] was 0.221 and the “combination Emax” value [15] was 0.315. The “combination Emax” value [16] was 0.885.

With CCc1c2c(nc3ccc(O)cc13)-c1cc3c(c(=O)n1C2)COC(=O)[C@]3(O)CC [SN-38] + O=C(c1cc(Cc2n[nH]c(=O)c3ccccc23)ccc1F)N1CCN(C(=O)C2CC2)CC1 [Olaparib] (first compound max 0.3 µM, 7x7, partner max 10 µM) the “combination Emax” value [1] was 0.981, the “combination Emax” value [2] was 0.931 and the “combination Emax” value (EW-11 (Ewing's Sarcoma)) was 0.742. For the same molecule, the “combination Emax” value (GAMG (Glioblastoma)) was 0.762, the “combination Emax” value [3] was 0.397 and the “combination Emax” value [5] was 0.118. The “combination Emax” value [6] was 0.94, the “combination Emax” value [8] was 0.464 and the “combination Emax” value (LOXIMVI (Melanoma)) was 0.784. For the same molecule, the “combination Emax” value [9] was 0.55, the “combination Emax” value (NCI-H2722 (Mesothelioma)) was 0.38 and the “combination Emax” value [10] was 0.783. For the same molecule, the “combination Emax” value [12] was 1, the “combination Emax” value [13] was 0.848 and the “combination Emax” value [14] was 0.175. The “combination Emax” value [15] was 0.327 and the “combination Emax” value [16] was 1.
